Assay results: patent publication US9205130B2, “Orally administrable pharmaceutical pellet of epidermal growth factor” (CENTRO DE INGENIERIA GENETICA Y BIOTECNOLOGIA, priority 2010, dated 2015)

Test system: 3T3 A31 cells
Test: Biological activity: induction of proliferation of 3T3 A31 cells, crystal violet
Assay type: cell-based, mouse
Details: before being formulated in form of capsule
Description: The activity of epidermal growth factor in capsules of example 1 packaged in blisters and stored at temperatures of 5±3° C. were tested. This biological test is based on the capacity of the epidermal growth factor human recombinant (EGF Hu-r) to induce the proliferation of cell lines of mouse embryos of 3T3/A3 which are extremely sensitive to contact inhibition cell division.
For determining the capability of induction of cell proliferation of EGF and its duration, the method comprises the quantification of the absorption of colorant crystal violet by the living cells 3T3 A31.
The preparation of samples of EGF comprises the addition of 100 ml of phosphate saline buffer (PBS1×) to the content of 10 capsules of Example 1, maintaining agitation for 15 minutes. The resultant suspension was centrifuged for 5 minutes at 9000 rpm and the aqueous solution was collected.
Cells 3T3 A31 in 96-plates at a concentration of 1.5×10^5 cells/mL were sown. These plates were incubated at 37° C., 5% CO2 and 95% humidity for 24 hours.
After completing the incubation time, cells were washed twice with 100 μl of PBS1× and then 100 μl of DMEM 1× without fetal bovine serum (SFB) was added to the medium and plates were incubated at 37° C., 5% CO2 and 95% humidity for another 24 hours. […]

With “epidermal growth factor [epidermal growth factor human recombinant, before being formulated in form of capsule]” the “Reference biological activity of EGF” value was 2×10^6 UI/mg.
